Assays:
NDO/NahB/NahC [1] = target: T1, NDO/NahB/NahC (Pseudomonas putida, UniProt P0A110); assay: Coupled naphthalene dioxygenase/NahB/NahC colorimetric assay; format: biochemical
T1 construct: made in house; host or cells: E. coli JM109 (DE3) (pDTG141) for NDO; E. coli BL21 Star (DE3) for NahB and NahC
Text: This disclosure relates to a method that uses microbial enzymes which degrade polyaromatic hydrocarbons to detect polycyclic aromatic hydrocarbons (PAH) in food and environmental samples. The first step in PAH degradation uses a PAH dioxygenase (PAHDO) enzyme such as naphthalene 1,2-dioxygenase (NDO) or biphenyl dioxygenase (BDO) to convert the PAH compound to PAH-(cis)-diol in an NADH- or NADPH-dependent manner.
The first reaction is catalyzed by the 1,2-dihydroxy-1,2-dihydronaphthalene dehydrogenase enzyme (NahB), while the second reaction is catalyzed by the enzyme 1,2-dihydroxynaphthalene dioxygenase (NahC). These enzymes are both derived from the bacteria Pseudomonas putida.
When these enzymes are used in succession, they function sequentially to convert colorless PAH compounds into a readily-detectable visible product class known as PAH chromene compounds.
(§1) 2 tubes each of NahB, Nahc, and NDO enzymes (1.7 ml aliquotes) were thawed from −20 C along with 2.6 mM NADH in water. 2.5 ml each of the NahC and NahB enzymes were desalted using PD-10 gel filtration and buffer exchanged into 20 mM Tris-Cl pH 8.5 at the same time. Once all of the reagents were thawed and desalted, positive and negative naphthalene reaction were made containing 127 ul each of NahB, NahC, and NDO with 20 ppm naphthalene in dimethylformamide (negative reactions contained only equal amounts dimethylformamide) and 0.133 mM NADH final concentration with a final reaction volume of 405 ul. The reaction was run at 25° C. for 2 hours and the sample absorbance was measured using a BioTek Synergy2 plate reader in the 320-640 nm wavelength range. […] Reactions for all PAH's conducted in the same, or a very similar format, depending on the volume of sample in the reaction. FIG. 4 depicts a spectrophotometric graph showing the absorbance caused by the presence of naphthalene placed in the above NDO/NahB/NahC assay.

NDO/NahB/NahC [2] = target: T1, NDO/NahB/NahC; assay: Colorimetric detection of fluorene in spiked clam samples, NDO/NahB/NahC assay; format: biochemical; conditions: clam homogenate spiked to 80 ppm fluorene, dichloromethane extraction, 10 μl of 200 ppm DMF solution in 411 μl reaction, 2 hr, 25° C.
Method: as §1
Approximately 25 g of clams were homogenized using a blender; a 2 g sample of this 25 g preparation was spiked to 80 ppm fluorene. […] The reaction was run for 2 hr at 25° C. and then read on a BioTek Synergy2 plate reader from 320-640 nm. FIG. 5 depicts the absorbance of fluorene spiked clam samples in the NDO/NahB/NahC assay.

T1 sequence (P0A110 whole entry): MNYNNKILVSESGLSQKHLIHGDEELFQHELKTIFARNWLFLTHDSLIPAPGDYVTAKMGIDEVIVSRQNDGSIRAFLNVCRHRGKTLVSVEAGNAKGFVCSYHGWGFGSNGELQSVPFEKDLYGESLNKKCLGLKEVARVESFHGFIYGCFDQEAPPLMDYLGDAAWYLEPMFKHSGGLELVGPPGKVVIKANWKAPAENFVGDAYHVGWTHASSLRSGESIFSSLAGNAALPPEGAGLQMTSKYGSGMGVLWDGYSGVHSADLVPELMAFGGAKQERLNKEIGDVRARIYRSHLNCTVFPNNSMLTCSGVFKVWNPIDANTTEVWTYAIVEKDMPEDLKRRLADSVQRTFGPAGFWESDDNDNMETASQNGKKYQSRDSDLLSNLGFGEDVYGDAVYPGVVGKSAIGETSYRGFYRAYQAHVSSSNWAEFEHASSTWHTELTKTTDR
T1 sequence (P0A112 whole entry, further chain): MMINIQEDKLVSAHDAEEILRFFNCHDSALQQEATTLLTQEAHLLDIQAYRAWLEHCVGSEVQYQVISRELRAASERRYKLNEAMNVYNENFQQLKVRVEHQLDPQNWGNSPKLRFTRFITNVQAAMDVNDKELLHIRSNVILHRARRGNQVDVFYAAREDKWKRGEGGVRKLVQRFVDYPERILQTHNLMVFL

Compound	detection of PAH compound by the colorimetric assay (NDO/NahB/NahC [1])	absorbance at 370 nm versus negative control reaction (NDO/NahB/NahC [1]; 20 ppm naphthalene in dimethylformamide, 0.133 mM NADH, 25° C., 2 hours)	absorbance at 390 nm versus buffer control or post-extraction spike (NDO/NahB/NahC [2])
c1ccc2ccccc2c1 [naphthalene]	detect	significantly higher	–
c1ccc2c(c1)[nH]c1ccccc12 [carbazole]	detect	–	–
c1ccc2cc3ccccc3cc2c1 [anthracene]	detect	–	–
c1ccc(-c2ccccc2)cc1 [biphenyl]	detect	–	–
c1ccc2c(c1)cc1ccc3cccc4ccc2c1c34 [benz(a)pyrene]	detect	–	–
c1ccc2c(c1)Cc1ccccc1-2 [fluorene]	detect	–	slightly higher
c1ccc2c(c1)ccc1ccccc12 [phenanthrene]	detect	–	–
